Source: US5843959A, “Methods and bicyclic polyamine compositions for the treatment of inflammation” (University of Florida Research Foundation, Inc., priority 1997, dated 1998)
Several values for one entry are separate records, joined by “and”; a condition that tells them apart may be missing. Equal entries are not always repeated.

Tests used:
[1] = test system: carrageenan-induced edema in rat paw; experiment: Inhibition of carrageenan-induced paw edema in rats; conditions: vs vehicle control; aspirin 150 mg/kg p.o., hydrocortisone 25 mg/kg p.o., PIP[4,4,4] 30 mg/kg i.p.; >30% significant
[2] = test system: adjuvant-induced arthritis; experiment: Adjuvant-induced arthritis model in Lewis rats (Table 7); conditions: p.o. 5 days, DiPIPs 100 mg/kg, Voltaren and indomethacin 6 mg/kg; for % FINAL INHIBITION: Day 28-0
Experimental: Four groups consisting of 6 male Lewis rats weighing 150-200 g were injected subcutaneously at the base of the tail with 0.1 ml of CFA. Drugs to be assayed were administered 5 days beginning on the day of the adjuvant injection. The paw volume of the right and left rear paw of each rat were measured on the day of adjuvant injection and at regular intervals for 30 days thereafter.
The emulsion was injected subcutaneously at the base of the tail and induced the arthritic state. Measurements of paw volume were made for 30 days to monitor paw swelling. Drug treatment began on Day 0.
Four groups consisting of 10 male Lewis rats weighing 150-200 g were injected subcutaneously at the base of the tail with 0.1 ml of CFA. Drugs to be assayed were administered for 5 days beginning on the day of the adjuvant injection.

[3] = test system: adjuvant-induced arthritis; conditions: for Inhibition % B (5-0): 5th day after 5 doses; for Inhibition % B (5-0) / Inhibition % A (1-0): p.o.: PIP[4,4,4] 100, hydrocortisone 30, indomethacin 5 mg/kg; for Inhibition % B (5-0) / Inhibition % A (1-0) / Inhibition % C (5-1) / Inhibition % D (14-0) / Inhibition % F (18-14) / Inhibition % E (18-0): >30% significant; for Net swelling of paw volume A (1-0), average: Day 1 - Day 0, average; for Net swelling of paw volume B (5-0), average: Day 5 - Day 0, average; for Net swelling of paw volume B (5-0): Day 5 - Day 0, individual rat; for Net swelling of paw volume C (5-1), average: Day 5 - Day 1, average; for Net swelling of paw volume C (5-1): Day 5 - Day 1, individual rat; for Polyarthritis E (ears) / Polyarthritis N (noses) / Polyarthritis P (paws) / Polyarthritis T (tails): Day 19, individual rat; for Inhibition % A (1-0): first day, after one dose; for Inhibition % C (5-1): paw volume change Day 1 to Day 5; for Net swelling of paw volume D (14-0), average / Net swelling of paw volume D (14-0) / Inhibition % D (14-0) / Inhibition % F (18-14) / Net swelling of paw volume E (18-0), average / Net swelling of paw volume E (18-0) / Net swelling of paw volume F (18-14), average / Net swelling of paw volume F (18-14) / Inhibition % E (18-0): untreated paw; for Net swelling of paw volume D (14-0), average: Day 14 - Day 0, average; for Net swelling of paw volume D (14-0): Day 14 - Day 0, individual rat; for Inhibition % D (14-0): Day 14 relative to Day 0; for Inhibition % F (18-14): Day 14 to Day 18; for Net swelling of paw volume E (18-0), average: Day 18 - Day 0, average; for Net swelling of paw volume E (18-0): Day 18 - Day 0, individual rat; for Net swelling of paw volume F (18-14), average: Day 18 - Day 14, average; for Net swelling of paw volume F (18-14): Day 18 - Day 14, individual rat; for Inhibition % E (18-0): Day 18 relative to Day 0; for Weight gain reductions (in words): vs vehicle-treated animals, 18 day study
[4] = p.o. × 5: PIP[4,4,4] 100, hydrocortisone 30, indomethacin 5 mg/kg

CC(=O)Oc1ccccc1C(=O)O [Aspirin]
% Edema inhibition [1]: 46%

C(CCNC1CCNCC1)CNC1CCNCC1 [DiPIP[3,4,3], N,N'-Bis(4-piperidinyl)-1,4-butanediamine]
% FINAL INHIBITION [2]: 70% and 41%

C[C@]12CCC(=O)C=C1CC[C@@H]1[C@@H]2[C@@H](O)C[C@@]2(C)[C@H]1CC[C@]2(O)C(=O)CO [Hydrocortisone]
Inhibition % B (5-0) [3]: 36%
Net swelling of paw volume A (1-0), average [3, 4]: 0.73 mL
Net swelling of paw volume B (5-0), average [3, 4]: 1.06 mL
Net swelling of paw volume B (5-0) [3, 4]: 0.89 mL and 0.96 mL and 0.86 mL and 0.98 mL and 1.61 mL
Net swelling of paw volume C (5-1), average [3, 4]: 0.33 mL
Net swelling of paw volume C (5-1) [3, 4]: 0.11 mL and 0.31 mL and 0.16 mL and 0.91 mL
Polyarthritis E (ears) [3, 4]: -
Polyarthritis N (noses) [3, 4]: -
Polyarthritis P (paws) [3, 4]: + and -
Polyarthritis T (tails) [3, 4]: -
Inhibition % A (1-0) [3]: 12%
Inhibition % C (5-1) [3, 4]: 60%
Net swelling of paw volume D (14-0), average [3, 4]: 0.35 mL
Net swelling of paw volume D (14-0) [3, 4]: 0.43 mL and 0.31 mL and 0.30 mL and 0.38 mL and 0.33 mL
Inhibition % D (14-0) [3, 4]: 22%
Inhibition % F (18-14) [3, 4]: 37%
Net swelling of paw volume E (18-0), average [3, 4]: 0.54 mL
Net swelling of paw volume E (18-0) [3, 4]: 0.53 mL and 0.38 mL and 0.66 mL and 0.72 mL and 0.41 mL
Net swelling of paw volume F (18-14), average [3, 4]: 0.19 mL
Net swelling of paw volume F (18-14) [3, 4]: 0.10 mL and 0.07 mL and 0.36 mL and 0.34 mL and 0.08 mL
Inhibition % E (18-0) [3, 4]: 28%
Weight gain reductions (in words) [3]: did not affect weight gain reductions
% Edema inhibition [1]: 32%

COc1ccc2c(c1)c(CC(=O)O)c(C)n2C(=O)c1ccc(Cl)cc1 [Indomethacin]
Inhibition % B (5-0) [3]: 48%
Net swelling of paw volume A (1-0), average [3, 4]: 0.53 mL
Net swelling of paw volume A (1-0) ([3]; Day 1 - Day 0, individual rat, p.o. × 5: PIP[4,4,4] 100, hydrocortisone 30, indomethacin 5 mg/kg): 0.53 mL and 0.58 mL and 0.51 mL and 0.45 mL
Net swelling of paw volume B (5-0), average [3, 4]: 0.85 mL
Net swelling of paw volume B (5-0) [3, 4]: 0.84 mL and 0.86 mL and 0.72 mL and 0.81 mL and 1.02 mL
Net swelling of paw volume C (5-1), average [3, 4]: 0.32 mL
Net swelling of paw volume C (5-1) [3, 4]: 0.31 mL and 0.28 mL and 0.14 mL and 0.30 mL and 0.57 mL
Polyarthritis E (ears) [3, 4]: -
Polyarthritis N (noses) [3, 4]: -
Polyarthritis P (paws) [3, 4]: -
Polyarthritis T (tails) [3, 4]: -
Inhibition % A (1-0) [3]: 36%
Inhibition % C (5-1) [3, 4]: 61%
B.W. Gain (18-0), average ([3]; rat, in vivo): 8 g
Net swelling of paw volume D (14-0), average [3, 4]: 0.28 mL
Net swelling of paw volume D (14-0) [3, 4]: 0.20 mL and 0.40 mL and 0.26 mL and 0.42 mL and 0.12 mL
Inhibition % D (14-0) [3, 4]: 38%
Inhibition % F (18-14) [3, 4]: 50%
Net swelling of paw volume E (18-0), average [3, 4]: 0.43 mL
Net swelling of paw volume E (18-0) [3, 4]: 0.43 mL and 0.50 mL and 0.51 mL and 0.49 mL and 0.22 mL
Net swelling of paw volume F (18-14), average [3, 4]: 0.15 mL
Net swelling of paw volume F (18-14) [3, 4]: 0.23 mL and 0.10 mL and 0.25 mL and 0.07 mL
Inhibition % E (18-0) [3, 4]: 43%
Weight gain reductions (in words) [3]: did not affect weight gain reductions
% FINAL INHIBITION [2]: 93%
FINAL DAY 28-0 (paw volume) [2]: 0.14
INITIAL DAY 14-0 (paw volume) [2]: .004

O=C(O)Cc1ccccc1Nc1c(Cl)cccc1Cl [Voltaren]
% FINAL INHIBITION [2]: 67%
FINAL DAY 28-0 (paw volume) [2]: .629
INITIAL DAY 14-0 (paw volume) [2]: .232
